Measurements: paper PMC9610285 (Pharmaceutics, 2022)

Columns and labels:
[1] = cited from earlier work
[2] = healthy volunteers, 1 mg single oral dose

## C#CCN[C@@H]1CCc2ccccc21 [rasagiline, Rasagiline]
[1]
  water solubility: poorly water-soluble
[2]
  adverse drug reactions (AEs causally related to rasagiline intake): Only one AE (headache)
